Measured values from ChEMBL document CHEMBL1158459, “Discovery of a peroxisome proliferator activated receptor gamma (PPARgamma) modulator with balanced PPARalpha activity for the treatment of type 2 diabetes and dyslipidemia” (J Med Chem, 2009).
The source made the active and inactive calls. No cut-off for these calls is given here.

Tests used:
[1] = target: T1, Peroxisome proliferator-activated receptor gamma (Homo sapiens, UniProt P37231)
T1 sequence (P37231 whole entry): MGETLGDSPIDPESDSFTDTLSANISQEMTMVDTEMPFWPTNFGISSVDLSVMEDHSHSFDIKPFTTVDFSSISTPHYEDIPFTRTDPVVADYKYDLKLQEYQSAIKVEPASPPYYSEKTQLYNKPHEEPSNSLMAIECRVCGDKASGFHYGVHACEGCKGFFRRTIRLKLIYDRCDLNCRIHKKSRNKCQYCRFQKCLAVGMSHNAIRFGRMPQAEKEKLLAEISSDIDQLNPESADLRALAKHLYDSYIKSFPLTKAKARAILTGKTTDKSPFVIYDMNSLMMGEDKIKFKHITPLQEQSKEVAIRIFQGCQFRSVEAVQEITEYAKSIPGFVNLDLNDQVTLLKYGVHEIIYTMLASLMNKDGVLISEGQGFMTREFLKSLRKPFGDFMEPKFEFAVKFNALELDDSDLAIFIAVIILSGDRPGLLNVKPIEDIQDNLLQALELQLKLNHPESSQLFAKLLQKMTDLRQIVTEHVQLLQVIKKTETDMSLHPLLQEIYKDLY
Description: Inhibition of human PPARgamma receptor by scintillation proximity assay

[2] = target: T2, Peroxisome proliferator-activated receptor alpha (Homo sapiens, UniProt Q07869); format: functional, cell-based, COS-1
T2 sequence (Q07869 whole entry): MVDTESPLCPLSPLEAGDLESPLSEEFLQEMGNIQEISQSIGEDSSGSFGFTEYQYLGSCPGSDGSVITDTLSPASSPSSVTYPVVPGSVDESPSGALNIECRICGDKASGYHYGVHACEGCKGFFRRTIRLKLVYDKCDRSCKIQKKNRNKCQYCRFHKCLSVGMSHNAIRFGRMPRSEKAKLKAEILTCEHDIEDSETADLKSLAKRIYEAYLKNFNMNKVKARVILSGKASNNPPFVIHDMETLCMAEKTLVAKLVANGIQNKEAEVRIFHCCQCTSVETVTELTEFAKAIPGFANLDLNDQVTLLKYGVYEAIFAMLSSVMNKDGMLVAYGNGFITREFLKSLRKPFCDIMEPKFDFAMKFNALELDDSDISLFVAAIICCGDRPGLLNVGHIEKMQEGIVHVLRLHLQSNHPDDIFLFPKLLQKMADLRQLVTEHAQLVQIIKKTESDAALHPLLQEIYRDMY
Description: Agonist activity at human PPARalpha receptor expressed in african green monkey COS1 cells co-transfected with fused yeast Gal4-DBD by transactivation assay

Rattus norvegicus [3] = assay: (§1) AUC in rat at 2 mg/kg, po; format: ADME, organism-based, Plasma; design: dose 2 mg/kg, route oral; settings: in vivo
Mus musculus [4] = assay: Antidiabetic activity in C57BLKS/J-m+/+Leprdb db/db mouse assessed as reduction in plasma triglyceride levels at 10 mg/kg, po once daily for 11 days relative to control; format: functional; design: scale not given: the % may be the effect or the level left
[5] = target: T3, Peroxisome proliferator-activated receptor alpha (Mus musculus, UniProt P23204); assay: Agonist activity at mouse PPARalpha receptor expressed in african green monkey COS1 cells co-transfected with fused yeast Gal4-DBD by transactivation assay; format: functional, cell-based, COS-1
T3 sequence (P23204 whole entry): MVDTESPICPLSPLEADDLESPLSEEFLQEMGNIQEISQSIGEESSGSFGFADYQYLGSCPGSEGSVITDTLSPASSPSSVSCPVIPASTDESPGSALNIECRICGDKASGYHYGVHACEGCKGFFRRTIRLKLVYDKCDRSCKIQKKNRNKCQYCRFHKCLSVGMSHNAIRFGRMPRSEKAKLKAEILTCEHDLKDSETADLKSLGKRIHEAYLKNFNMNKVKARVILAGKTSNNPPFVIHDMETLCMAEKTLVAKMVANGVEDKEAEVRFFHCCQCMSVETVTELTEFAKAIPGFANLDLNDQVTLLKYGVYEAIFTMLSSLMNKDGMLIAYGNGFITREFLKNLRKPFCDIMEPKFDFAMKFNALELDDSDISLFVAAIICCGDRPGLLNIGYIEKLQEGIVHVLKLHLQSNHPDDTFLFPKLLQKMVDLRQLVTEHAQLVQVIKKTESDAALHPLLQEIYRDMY

[6] = target: T1, Peroxisome proliferator-activated receptor gamma; settings: cos-1
Description: (§2) Agonist activity at human PPARgamma receptor expressed in african green monkey COS1 cells co-transfected with fused yeast Gal4-DBD by transactivation assay

Mus musculus [7] = assay: Antidiabetic activity in C57BLKS/J-m+/+Leprdb db/db mouse assessed as reduction in plasma glucose levels at 10 mg/kg, po once daily for 11 days relative to control; format: functional; design: scale not given: the % may be the effect or the level left
[8] = target: T2, Peroxisome proliferator-activated receptor alpha; assay: Inhibition of human PPARalpha receptor by scintillation proximity assay
[9] = AUC in C57BLKS/J-m+/+Leprdb db/db mouse at 10 mg/kg, po once daily for 11 days; format: ADME, organism-based; design: dose 10 mg/kg, route oral; settings: plasma
[10] = as §1; format: ADME, organism-based, Plasma; design: dose 2 mg/kg, route oral; settings: plasma
[11] = target: T1, Peroxisome proliferator-activated receptor gamma; remark: listed apart in the source
Description: as §2

Rattus norvegicus [12] = assay: Antidiabetic activity in po dosed Zucker fa/fa rat assessed as insulin lowering activity treated once daily for 7 days; format: functional
[13] = Cmax in C57BLKS/J-m+/+Leprdb db/db mouse at 10 mg/kg, po once daily for 11 days; format: ADME, organism-based; design: dose 10 mg/kg, route oral; settings: in vivo
Mus musculus [14] = assay: Antidiabetic activity in high fat diet-fed streptozotocin-treated mouse assessed as reduction in plasma glucose levels at 5 mg/kg, po once daily for 12 days relative to control; format: functional; design: scale not given: the % may be the effect or the level left
Rattus norvegicus [15] = assay: Antidiabetic activity in Zucker fa/fa rat assessed as decrease in triglyceride levels at 0.3 mg/kg, po once daily for 7 days; format: functional, organism-based; design: dose 0.3 mg/kg
Mus musculus [16] = assay: Antidiabetic activity in high fat diet-fed streptozotocin-treated mouse assessed as reduction in plasma glucose levels at 30 mg/kg, po once daily for 12 days relative to control; format: functional; design: scale not given: the % may be the effect or the level left
Rattus norvegicus [17] = assay: Antidiabetic activity in Zucker fa/fa rat assessed as decrease in triglyceride levels at 100 mg/kg, po once daily for 7 days; format: functional, organism-based; design: dose 100 mg/kg
Rattus norvegicus [18] = assay: Antidiabetic activity in Zucker fa/fa rat assessed as decrease in triglyceride levels at 0.03 mg/kg, po once daily for 7 days; format: functional, organism-based; design: dose 0.03 mg/kg
Rattus norvegicus [19] = assay: Antidiabetic activity in Zucker fa/fa rat assessed as decrease in triglyceride levels at 10 mg/kg, po once daily for 7 days; format: functional, organism-based; design: dose 10 mg/kg
[20] = AUC in Sprague-Dawley rat at 150 mg/kg, po once daily for 14 days; format: ADME, organism-based; design: dose 150 mg/kg, route oral; settings: plasma
Rattus norvegicus [21] = assay: Antidiabetic activity in Zucker fa/fa rat assessed as decrease in triglyceride levels at 15 mg/kg, po once daily for 7 days; format: functional, organism-based; design: dose 15 mg/kg
Rattus norvegicus [22] = assay: Antidiabetic activity in Zucker fa/fa rat assessed as decrease in triglyceride levels at 1 mg/kg, po once daily for 7 days; format: functional, organism-based; design: dose 1 mg/kg
Rattus norvegicus [23] = assay: Antidiabetic activity in Zucker fa/fa rat assessed as decrease in triglyceride levels at 3 mg/kg, po once daily for 7 days; format: functional, organism-based; design: dose 3 mg/kg

Row | Compound | IC50 [1] [nM] | EC50 [2] [nM] | IC50 [8] [nM] | Activity (Mus musculus [4]) [%] | Activity (Mus musculus [7]) [%] | AUC [10] [µM·h] | EC50 [11] [nM] | EC50 [5] [nM] | other results
1 | CC[C@@](C)(Oc1cccc(Cn2c(C)c(C(=O)c3ccc(Cl)cc3)c3ccc(OC(F)(F)F)cc32)c1)C(=O)O (stereo in doubt; 12i) | 9 | 107 | 87 | – | – | – | – | – | AUC (Rattus norvegicus [3]): 1.3 µM·h; Activity (Mus musculus [4]; 10 mg/kg): 51%; EC50 ([5]; cos-1): > 1000 nM; EC50 [6]: 2 nM; Activity (Mus musculus [7]; 10 mg/kg): 71%
2 | CCc1ccc(CCOc2ccc(CC3SC(=O)NC3=O)cc2)nc1 (stereo unspecified) [PIOGLITAZONE] | – | – | – | 65 | 53 | – | – | – | AUC at 264 h [9]: 180 µM·h
3 | Cc1c(C(=O)c2ccc(Cl)cc2)c2ccc(OC(F)(F)F)cc2n1Cc1cccc(O[C@@H](C(=O)O)C(C)C)c1 | 10 | 2 | 491 | 87 | 101 | 3.5 | 2 | 40 | –
4 | CN(CCOc1ccc(CC2SC(=O)NC2=O)cc1)c1ccccn1 (stereo unspecified) [ROSIGLITAZONE] | – | – | – | 71 | 76 | 16.4 | – | > 3000 | ED50 (Rattus norvegicus [12]): 25 µM·h; Cmax [13]: 68 µM; Activity (Mus musculus [14]): 36%; Activity (Rattus norvegicus [15]): Active; Activity (Mus musculus [16]): 45%; Activity (Rattus norvegicus [17]): Active; Activity (Rattus norvegicus [18]): Active; Activity (Rattus norvegicus [19]): Active; AUC at 336 h [20]: 600 µM·h; Activity (Rattus norvegicus [21]): Active; Activity (Rattus norvegicus [22]): Active; Activity (Rattus norvegicus [23]): Active
5 | CC[C@@](C)(Oc1cccc(Cn2c(C)c(C(=O)c3ccc(Cl)cc3)c3ccc(OC(F)(F)F)cc32)c1)C(=O)O (stereo in doubt; 12j) | 5 | 129 | 764 | – | – | – | 2 | > 1000 | AUC (Rattus norvegicus [3]): 2.8 µM·h; Activity (Mus musculus [4]; 10 mg/kg): 3%; Activity (Mus musculus [7]; 10 mg/kg): 45%
6 | CCC[C@H](Oc1cccc(Cn2c(C)c(C(=O)c3ccc(Cl)cc3)c3ccc(OC(F)(F)F)cc32)c1)C(=O)O | 8 | > 3000 | > 50000 | 8 | 22 | 1.2 | 1 | > 3000 | –
7 | Cc1c(C(=O)c2ccc(Cl)cc2)c2ccc(OC(F)(F)F)cc2n1Cc1cccc(OC2(C(=O)O)CCC2)c1 | 16 | 185 | 1080 | – | – | – | 12 | 150 | –
8 | Cc1c(C(=O)c2ccc(Cl)cc2)c2ccc(OC(F)(F)F)cc2n1Cc1cccc(OCC(=O)O)c1 | 2 | > 3000 | > 15000 | – | – | – | 2 | 350 | –
